# Active and inactive are the calls of the source. The rule behind the calls is not given here.
# Experiments:
# BEAS-2B = experiment: Cytotoxicity against human BEAS-2B cells assessed as cell survival at 8 microg/ml by XTT assay; format: toxicity, cell-based; conditions: dose 8 µg/ml
# Candida albicans [1] = experiment: Partial synergistic antifungal activity against Candida albicans ATCC MYA-1003 assessed as fractional inhibitory concentration index measured for 72 hrs in presence of voriconazole; format: functional
# Candida albicans [2] = experiment: Partial synergistic antifungal activity against Candida albicans ATCC 10231 assessed as fractional inhibitory concentration index measured for 72 hrs in presence of itraconazole; format: functional
# Nakaseomyces glabratus [3] = experiment: Antifungal activity against Candida glabrata ATCC 2001 measured after 48 hrs by broth microdilution analysis; format: functional
# Candida albicans [4] = experiment: Additive antifungal activity against Candida albicans ATCC 64124 assessed as fractional inhibitory concentration index measured for 72 hrs in presence of fluconazole; format: functional
# Candida albicans [5] = experiment: Partial synergistic antifungal activity against Candida albicans ATCC 64124 assessed as fractional inhibitory concentration index measured for 72 hrs in presence of ketoconazole; format: functional
# Candida albicans [6] = experiment: Fungicidal activity against Candida albicans ATCC 64124 assessed as reduction in colony forming units at 8 times MIC incubated for 24 hrs by time kill assay; format: functional, organism-based
# Candida albicans [7] = experiment: Partial synergistic antifungal activity against Candida albicans ATCC 10231 assessed as fractional inhibitory concentration index measured for 72 hrs in presence of posaconazole; format: functional
# Candida albicans [8] = experiment: Fungicidal activity against Candida albicans ATCC 64124 assessed as reduction in colony forming units at 2 to 8 times MIC incubated after 6 hrs by time kill assay; format: functional, organism-based
# Nakaseomyces glabratus [9] = experiment: Additive antifungal activity against Candida glabrata ATCC 2001 assessed as fractional inhibitory concentration index measured for 72 hrs in presence of voriconazole; format: functional
# [10] = Cytotoxicity against human HEK293 cells assessed as cell survival at 16 microg/ml in presence of posaconazole by XTT assay; format: toxicity, cell-based; conditions: at 16 µg/mL
# [11] = Cytotoxicity against mouse J774.A1 cells assessed as cell survival at 32 microg/ml by XTT assay; format: toxicity, cell-based; conditions: at 32 µg/mL, read-out: Activity
# Candida albicans [12] = experiment: Additive antifungal activity against Candida albicans ATCC MYA-2876 assessed as fractional inhibitory concentration index measured for 72 hrs in presence of posaconazole; format: functional
# Candida albicans [13] = experiment: Additive antifungal activity against Candida albicans ATCC MYA-1237 assessed as fractional inhibitory concentration index measured for 72 hrs in presence of posaconazole; format: functional
# Candida albicans [14] = experiment: Partial synergistic antifungal activity against Candida albicans ATCC MYA-1003 assessed as fractional inhibitory concentration index measured for 72 hrs in presence of posaconazole; format: functional
# Nakaseomyces glabratus [15] = experiment: Synergistic antifungal activity against Candida glabrata ATCC 2001 assessed as fractional inhibitory concentration index measured for 72 hrs in presence of voriconazole; format: functional
# Candida albicans [16] = experiment: Partial synergistic antifungal activity against Candida albicans ATCC 10231 assessed as fractional inhibitory concentration index measured for 72 hrs in presence of ketoconazole; format: functional
# Nakaseomyces glabratus [17] = experiment: Additive antifungal activity against Candida glabrata ATCC 2001 assessed as fractional inhibitory concentration index measured for 72 hrs in presence of posaconazole; format: functional
# Candida albicans [18] = experiment: Antifungal activity against Candida albicans ATCC MYA-2876 measured after 48 hrs by broth microdilution analysis; format: functional
# Candida albicans [19] = experiment: Synergistic antifungal activity against Candida albicans ATCC 10231 assessed as compound MIC measured after 48 hrs in presence of itraconazole by checkboard based microplate reader analysis; format: functional
# Candida albicans [20] = experiment: Synergistic antifungal activity against Candida albicans ATCC 64124 assessed as compound MIC measured after 48 hrs in presence of itraconazole by checkboard based microplate reader analysis; format: functional
# Aspergillus terreus = experiment: Antifungal activity against Aspergillus terreus ATCC MYA-3633 measured after 48 hrs by broth microdilution analysis; format: functional
# Candida albicans [21] = experiment: Antifungal activity against Candida albicans ATCC MYA-1237 measured after 48 hrs by broth microdilution analysis; format: functional
# Candida albicans [22] = experiment: Antifungal activity against Candida albicans ATCC MYA-2310 measured after 48 hrs by broth microdilution analysis; format: functional
# [23] = Cytotoxicity against mouse J774.A1 cells assessed as cell survival at 16 microg/ml by XTT assay; format: toxicity, cell-based; conditions: at 16 µg/mL, read-out: Activity
smiles,measurement,setting,value
O=C(CCCN1CCC(O)(c2ccc(Br)cc2)CC1)c1ccc(F)cc1 [BROMPERIDOL],Activity,BEAS-2B,Non-Toxic
same,fractional inhibitory concentration index (FICI),Candida albicans [1],0.52
same,fractional inhibitory concentration index (FICI),Candida albicans [2],0.75
same,MIC,Nakaseomyces glabratus [3],> 128 µg/mL
same,fractional inhibitory concentration index (FICI),Candida albicans [4],1.5
same,fractional inhibitory concentration index (FICI),Candida albicans [5],0.75
same,Activity,Candida albicans [6],Active
same,fractional inhibitory concentration index (FICI),Candida albicans [7],0.75
same,Activity,Candida albicans [8],Active
same,fractional inhibitory concentration index (FICI),Nakaseomyces glabratus [9],0.51
same,viability at 16 microg/ml,[10],40%
same,viability at 32 microg/ml,[11],50%
same,fractional inhibitory concentration index (FICI),Candida albicans [12],2
same,fractional inhibitory concentration index (FICI),Candida albicans [13],2
same,fractional inhibitory concentration index (FICI),Candida albicans [14],0.75
same,fractional inhibitory concentration index (FICI),Nakaseomyces glabratus [15],0.51
same,fractional inhibitory concentration index (FICI),Candida albicans [16],0.75
same,fractional inhibitory concentration index (FICI),Nakaseomyces glabratus [17],0.51
same,MIC,Candida albicans [18],> 128 µg/mL
same,MIC,Candida albicans [19],64 µg/mL
same,MIC,Candida albicans [20],64 µg/mL
same,MIC,Aspergillus terreus,> 128 µg/mL
same,MIC,Candida albicans [21],> 128 µg/mL
same,MIC,Candida albicans [22],> 128 µg/mL
same,viability at 16 microg/ml,[23],72%
